Experiments:
B-16 melanoma [1] = experiment: Melanin synthesis inhibitory activity in B-16 melanoma; assay type: cell-based, mice; settings: Mus musculus, B16, DMEM with a-MSH and theophylline, read-out: IC50 melanin synthesis inhibition
Method: To identify the melanin synthesis inhibitory activities of the chalcone derivatives of the present invention, whitening effects were measured using B-16 melanoma. 2 ml of B-16 melanoma, derived from black mice, was added to the respective wells in concentration of 2×10^4 cells/well on a 6 well plate using DMEM with 10% FBS and cultivated under the conditions of 5% CO2 and 37° C. for twenty four hours. Media were removed after the cultivation and the DMEM used was replaced with DMEM having 10% FBS, 0.2 mM a-MSH and 2 mM theophylline. Subsequently, appropriate amounts of the chalcone compounds of Examples 2 to 6, 8, 13, 14, 17 and 18 were diluted with the same media and added thereto, respectively, to be cultivated under the conditions of 5% CO2 and 37° C. until the cells grew above 80%. The media were removed after the cultivation and the resultant compounds were washed with PBS and processed with […] to collect cell pellets. Collected pellets were moved to 1.5 ml of Eppendorf tubes to be centrifuged at […] for ten minutes. Then, the pellets in which supernatants were removed were dried in an incubator of 60° C. for twenty four hours. Subsequently, 1N NaOH was added thereto to dissolve melanins in the cells. Dissolved melanins are diluted with appropriate amounts of PBS to measure absorbance at 490 nm, thus obtaining melanin inhibitory rates via Equation 1 above (T. Mosmann, J. Immunol. Methods, 1983, 65, 55; P. R. Gorden, J. Invest. Dermatol., 1989, 92, 565). As a comparative example, the same experiment was carried out using albutin.

α-amylase = α-amylase inhibitory activity via analysis of reducing sugars; assay type: biochemical; settings: 1% starch substrate, DNS reagent, pH 4.5, 37° C., twenty minutes
Method: (§1) α-amylase, a kind of glycosidase enzymes, was used to identify glycosidase inhibitory activities of the chalcone derivatives of the present invention. Using 1% starch as substrate, α-amylase activities were measured by measuring the amounts in that α-amylases hydrolyzed the substrates after adding DNS (1% dinitrosalicylic acid, 12% potassium sodium tartrate in 0.4 M NaOH), a color reagent (Bioorg. Med. Chem. Lett., 2002, 12, 2335-2339). 1% starch as substrate was dissolved in acetate buffer (0.05 M, pH 4.5) in test tubes. After preprocessing at 37° C. for ten minutes, the resultant solutions were quantified as 100 μl in tubes. α-amylases of 0.25 unit/ml, prepared with the acetate buffer, were quantified as 100 μl. Subsequently, the chalcone derivatives prepared in Examples 2, 5, 6, 8, 9, 10, 11 and 12 in accordance with the present invention were dissolved in 50% DMSO solvent and quantified as 50 μl, respectively. After reacting the samples quantified at 37° C. for twenty minutes, 300 μl of DNS, the color reagent, were added thereto. Next, the resultant solutions were reacted in boiled water for ten minutes and cooled to measure absorbance at 540 nm, thus obtaining amylase inhibitory rates via equation 1 above. Measured IC50 values of the chalcone derivatives prepared in Examples 2, 5, 6, 8, 9, 10, 11 and 12 for α-amylases were depicted in table 3.

β-amylase = β-amylase inhibitory activity via analysis of reducing sugars; assay type: biochemical; settings: 1% starch substrate, DNS reagent, same manner as α-amylase test
Method: as §1
β-amylase inhibitory activities were measured in the same manner as Experimental example 2 except for using β-amylases as glycosidase and the IC50 values were depicted in Table 3 above.

B-16 melanoma [2] = experiment: Cytotoxicity in B-16 melanoma; assay type: cell-based, mice; settings: melanin test not performed because of cytotoxicity

Row | SMILES | IC50 (B-16 melanoma [1]) | IC50 (α-amylase) | IC50 (β-amylase) | also measured
1 | OC[C@H]1O[C@@H](Oc2ccc(O)cc2)[C@H](O)[C@@H](O)[C@@H]1O [Albutin, albutin, reference compound] | 92 µM | – | – | –
2 | Cc1ccc(S(=O)(=O)Nc2ccc(C(=O)/C=C/c3ccc(O)cc3)cc2)cc1 [Example 2, 4′-(p-toluenesulfonylamino)-4-hydroxychalcone] | 14.8 µM | 87.8 µM | 247 µM | –
3 | O=C(/C=C/c1ccc(O)cc1)c1ccc(NS(=O)(=O)c2ccccc2)cc1 [Example 3, 4′-benzenesulfonylamino-4-hydroxychalcone] | 20.6 µM | – | – | –
4 | O=C(/C=C/c1ccc(O)cc1)c1ccc(NS(=O)(=O)c2ccc([N+](=O)[O-])cc2)cc1 [Example 4, 4′-(p-nitrobenzenesulfonylamino)-4-hydroxychalcone] | – | – | – | cytotoxicity of the compounds (B-16 melanoma [2]): ND^a (ND denotes the cases where the experiments on the melanin synthesis inhibitory activities in B-16 melanoma were not performed since the cytotoxicity of the compounds was shown as more than 50%)
5 | O=C(/C=C/c1ccc(O)cc1)c1ccc(NS(=O)(=O)c2ccc(F)cc2)cc1 [Example 5, 4′-(p-fluorobenzenesulfonylamino)-4-hydroxychalcone] | 23.7 µM | – | 127 µM | IC50 α-amylase (α-amylase): NI^a (NI denotes the cases where the inhibitory rates were below 20% measured when the concentration of the chalcone derivatives was 200 μM or means that there were no inhibitory activities for α-, or β-amylases)
6 | CS(=O)(=O)Nc1ccc(C(=O)/C=C/c2ccc(O)cc2)cc1 [Example 6, 4′-(methanesulfonylamino)-4-hydroxychalcone] | 20.3 µM | 194 µM | 65 µM | –
7 | Nc1ccc(C(=O)/C=C/c2ccc(O)cc2)cc1 [Example 8, 4′-amino-4-hydroxychalcone] | 12.5 µM | 269 µM | – | IC50 β-amylase (β-amylase): NI (NI denotes the cases where the inhibitory rates were below 20% measured when the concentration of the chalcone derivatives was 200 μM or means that there were no inhibitory activities for α-, or β-amylases)
8 | O=C(/C=C/c1ccc(O)c(O)c1)c1ccc(NS(=O)(=O)c2ccccc2)cc1 [Example 9, 4′-benzenesulfonylamino-3,4-dihydroxychalcone] | – | – | 206 µM | IC50 α-amylase (α-amylase): NI (NI denotes the cases where the inhibitory rates were below 20% measured when the concentration of the chalcone derivatives was 200 μM or means that there were no inhibitory activities for α-, or β-amylases)
9 | O=C(/C=C/c1ccc(O)c(O)c1)c1ccc(NS(=O)(=O)c2ccc([N+](=O)[O-])cc2)cc1 [Example 10, 4′-(p-nitrobenzenesulfonylamino)-3,4-dihydroxychalcone] | – | 37.3 µM | 201 µM | –
10 | O=C(/C=C/c1ccc(O)c(O)c1)c1ccc(NS(=O)(=O)c2ccc(F)cc2)cc1 [Example 11, 4′-(p-fluorobenzenesulfonylamino)-3,4-dihydroxychalcone] | – | – | – | IC50 α-amylase (α-amylase): NI (NI denotes the cases where the inhibitory rates were below 20% measured when the concentration of the chalcone derivatives was 200 μM or means that there were no inhibitory activities for α-, or β-amylases); IC50 β-amylase (β-amylase): NI (NI denotes the cases where the inhibitory rates were below 20% measured when the concentration of the chalcone derivatives was 200 μM or means that there were no inhibitory activities for α-, or β-amylases)
11 | CS(=O)(=O)Nc1ccc(C(=O)/C=C/c2ccc(O)c(O)c2)cc1 [Example 12, 4′-(methanesulfonylamino)-3,4-dihydroxychalcone] | – | 16.8 µM | 24.8 µM | –
12 | Nc1cccc(C(=O)/C=C/c2ccc(O)cc2)c1 [Example 13, 3′-amino-4-hydroxychalcone] | – | – | – | cytotoxicity of the compounds (B-16 melanoma [2]): ND (ND denotes the cases where the experiments on the melanin synthesis inhibitory activities in B-16 melanoma were not performed since the cytotoxicity of the compounds was shown as more than 50%)
13 | Cc1ccc(S(=O)(=O)Nc2cccc(C(=O)/C=C/c3ccc(O)cc3)c2)cc1 [Example 14, 3′-(p-toluenesulfonylamino)-4-hydroxychalcone] | 25.6 µM | – | – | –
14 | O=C(/C=C/c1ccc(O)cc1)c1ccccc1 [Example 17, 4-hydroxychalcone] | – | – | – | cytotoxicity of the compounds (B-16 melanoma [2]): ND (ND denotes the cases where the experiments on the melanin synthesis inhibitory activities in B-16 melanoma were not performed since the cytotoxicity of the compounds was shown as more than 50%)
15 | O=C(/C=C/c1ccc(O)cc1)c1ccc(O)cc1 [Example 18, 4′,4-dihydroxychalcone] | – | – | – | cytotoxicity of the compounds (B-16 melanoma [2]): ND (ND denotes the cases where the experiments on the melanin synthesis inhibitory activities in B-16 melanoma were not performed since the cytotoxicity of the compounds was shown as more than 50%)

From patent US7851654B2, “Chalcone derivatives, pharmaceutically acceptable salt, method for preparation and uses thereof” (Industry-Academic Cooperation Foundation Gyeongsang …, priority 2006, dated 2010)
